The test system of assay [1] is IL-17A in Human peripheral mononuclear cells. The assay can be described thus: Human PBMC IL-17A assay. It counts as cell-based. The note with it: 72 h, EC50, antiCD3/antiCD28-coated beads, 3 days, alpha-LISA. The method, boiled down: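 Cryopreserved human PBMC (130,000/well) stimulated with anti-CD3/anti-CD28-coated beads (1 cell per bead) in RPMI-1640 with 10% bovine calf serum, compounds at 0.1% DMSO, for 3 days. Supernatant IL-17A measured by AlphaLISA, viability by PrestoBlue; EC50 from 4-parameter non-linear regression.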

Assay [2] concerns the target T1, human RORgt nuclear receptor (RORgT ligand binding domain protein) (Homo sapiens, UniProt P51449).
T1 construct: purchased Proteros Biostructures GmbH
T1 sequence (P51449 with tags, fused parts or gaps): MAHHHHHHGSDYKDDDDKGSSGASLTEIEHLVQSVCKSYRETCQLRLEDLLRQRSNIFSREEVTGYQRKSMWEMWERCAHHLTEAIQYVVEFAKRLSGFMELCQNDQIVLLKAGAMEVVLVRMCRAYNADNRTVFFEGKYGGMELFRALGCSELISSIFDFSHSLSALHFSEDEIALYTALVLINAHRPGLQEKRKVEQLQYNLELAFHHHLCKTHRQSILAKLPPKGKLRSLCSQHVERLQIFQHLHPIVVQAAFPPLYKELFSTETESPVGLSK
Description: ROR-gamma binding assay (Scintillation Proximity Assay, displacement of [3H]-25-hydroxycholesterol). To be noted: EC50, SPA, 15 nM [3H]-25-Hydroxycholesterol, RORgT LBD 12 nM. The procedure, abridged:
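SPA competition of compound against 15 nM [3H]-25-hydroxycholesterol for His/FLAG-tagged human RORγt LBD (12 nM) on His-tag PVT beads, in 50 mM HEPES pH 7.4, 150 mM NaCl, 5 mM MgCl2, 0.1% BSA, 0.5% DMSO. 30 min preincubation, then ≥4 h at room temperature in darkness; EC50 by four-parameter fit.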

Assay [3] deals with IL-17A levels in human peripheral blood. The assay can be described thus: tissue or blood. It counts as cell-based. To be noted: 72 h, read-out: Human Whole blood IL-17A (nM).

In the case of `Cc1cc(CN2CCN(C(=O)OC(C)C)[C@@H](C)C2)c(C)c(Nc2nnc(C[C@@H](O)C(F)(F)F)o2)c1` [Example 57, isopropyl (2S)-4-[[2,5-dimethyl-3-[[5-[(2R)-3,3,3-trifluoro-2-hydroxy-propyl]-1,3,4-oxadiazol-2-yl]amino]phenyl]methyl]-2-methyl-piperazine-1-carboxylate], the EC50 came to 0.0465 µM in assay [1], 0.0238 µM in assay [2] and 96.7 nM in assay [3].

`Cc1cc(CN2CCN(C(=O)OC(C)C)[C@@H](C)C2)c(C)c(Nc2nnc(C3CCNC(=O)C3)o2)c1` (stereo partly drawn) [Example 58, isopropyl (2S)-4-[[2,5-dimethyl-3-[[5-(2-oxo-4-piperidyl)-1,3,4-oxadiazol-2-yl]amino]phenyl]methyl]-2-methyl-piperazine-1-carboxylate]: the EC50 in assay [1] is 0.373 µM; in assay [2] it was 0.0544 µM; in assay [3] it was 215 nM.

With `Cc1cc(CN2CCN(C(=O)OC(C)C)[C@@H](C)C2)c(C)c(Nc2nnc(-c3ccnn3C)o2)c1` [Example 59, isopropyl (2S)-4-[[2,5-dimethyl-3-[[5-(2-methylpyrazol-3-yl)-1,3,4-oxadiazol-2-yl]amino]phenyl]methyl]-2-methyl-piperazine-1-carboxylate], the EC50 in assay [1] worked out at 0.123 µM; in assay [2] it was 0.0257 µM; in assay [3], 211 nM.

For the compound `Cc1cc(CN2CCN(C(=O)OC(C)C)[C@@H](C)C2)c(C)c(Nc2nnc(C[C@H](C)O)o2)c1` [Example 60, isopropyl (2S)-4-[[3-[[5-[(2S)-2-hydroxypropyl]-1,3,4-oxadiazol-2-yl]amino]-2,5-dimethyl-phenyl]methyl]-2-methyl-piperazine-1-carboxylate], the EC50 is 0.106 µM in assay [1], 0.0383 µM in assay [2] and 195 nM in assay [3].

For `Cc1cc(CN2CCN(C(=O)OC(C)C)[C@@H](C)C2)c(C)c(Nc2nnc(C[C@@H](C)O)o2)c1` [Example 61, isopropyl (2S)-4-[[3-[[5-[(2R)-2-hydroxypropyl]-1,3,4-oxadiazol-2-yl]amino]-2,5-dimethyl-phenyl]methyl]-2-methyl-piperazine-1-carboxylate], the EC50 in assay [1] came to 0.106 µM; in assay [2], 0.0423 µM; in assay [3], 101 nM.

For `CC[C@H](O)c1nnc(Nc2cc(C)cc(CN3CCN(C(=O)OC(C)C)[C@@H](C)C3)c2C)o1` [Example 62, isopropyl (2S)-4-[[3-[[5-[(1S)-1-hydroxypropyl]-1,3,4-oxadiazol-2-yl]amino]-2,5-dimethyl-phenyl]methyl]-2-methyl-piperazine-1-carboxylate], the EC50 in assay [1] was found to be 0.0676 µM; in assay [2], 0.0207 µM; in assay [3] it was 103 nM.

`Cc1c(CN2CCN(C(=O)OC(C)C)[C@@H](C)C2)cc(Cl)cc1Nc1nnc([C@H](C)O)o1` [Example 63, isopropyl (2S)-4-[[5-chloro-3-[[5-[(1S)-1-hydroxyethyl]-1,3,4-oxadiazol-2-yl]amino]-2-methyl-phenyl]methyl]-2-methyl-piperazine-1-carboxylate]: the values for the EC50 in assay [1], in assay [2] and in assay [3] were 0.0621 µM, 0.0348 µM and 187 nM, respectively.

As to `Cc1c(CN2CCN(C(=O)OC(C)C)[C@@H](C)C2)cc(Cl)cc1Nc1nnc([C@H]2C[C@H](O)C2)o1` [Example 64, isopropyl (2S)-4-[[5-chloro-3-[[5-(3-hydroxycyclobutyl)-1,3,4-oxadiazol-2-yl]amino]-2-methyl-phenyl]methyl]-2-methyl-piperazine-1-carboxylate], the EC50 in assay [1] was 0.131 µM; in assay [2], 0.0506 µM; in assay [3], 191 nM.

In the case of `Cc1cc(CN2CCN(C(=O)OC(C)C)[C@@H](C)C2)c(C)c(Nc2nnc([C@@H]3CCCN3S(C)(=O)=O)o2)c1` [Example 65, isopropyl (2S)-4-[[2,5-dimethyl-3-[[5-[(2S)-1-methylsulfonylpyrrolidin-2-yl]-1,3,4-oxadiazol-2-yl]amino]phenyl]methyl]-2-methyl-piperazine-1-carboxylate], the EC50 came to 0.0587 µM in assay [1], 0.0479 µM in assay [2] and 107 nM in assay [3].

Regarding `Cc1cc(CN2CCN(C(=O)OC(C)C)[C@@H](C)C2)c(C)c(Nc2nnc([C@H](C)O)o2)c1` [Example 66, isopropyl (2S)-4-[[3-[[5-[(1S)-1-hydroxyethyl]-1,3,4-oxadiazol-2-yl]amino]-2,5-dimethyl-phenyl]methyl]-2-methyl-piperazine-1-carboxylate], the EC50 in assay [1] was found to be 0.0776 µM; in assay [2], 0.0548 µM; in assay [3], 140 nM.

Consider `Cc1c(CN2CCN(C(=O)OC(C)C)[C@@H](C)C2)cc(Cl)cc1Nc1nnc(C2CNC(=O)C2)o1` (stereo partly drawn) [Example 67, isopropyl (2S)-4-[[5-chloro-2-methyl-3-[[5-(5-oxopyrrolidin-3-yl)-1,3,4-oxadiazol-2-yl]amino]phenyl]methyl]-2-methyl-piperazine-1-carboxylate], for which the EC50 in assay [1] was 0.0472 µM; in assay [2], 0.0622 µM; in assay [3], 597 nM.

As to `Cc1cc(CN2CCN(C(=O)OC(C)C)[C@@H](C)C2)c(C)c(Nc2nnc([C@@H](C)N)o2)c1` [Example 68, isopropyl (2S)-4-[[3-[[5-[(1R)-1-aminoethyl]-1,3,4-oxadiazol-2-yl]amino]-2,5-dimethyl-phenyl]methyl]-2-methyl-piperazine-1-carboxylate], the values for the EC50 in assay [1], in assay [2] and in assay [3] were 0.182 µM, 0.103 µM and 552 nM, respectively.

For the compound `Cc1cc(CN2CCN(C(=O)OCC(F)(F)F)[C@@H](C)C2)c(C)c(Nc2nnc([C@H]3C[C@@H](O)C3)o2)c1` [Example 70, 2,2,2-trifluoroethyl (2S)-4-[[3-[[5-(3-hydroxycyclobutyl)-1,3,4-oxadiazol-2-yl]amino]-2,5-dimethyl-phenyl]methyl]-2-methyl-piperazine-1-carboxylate], the EC50 is 0.0785 µM in assay [1], 0.0522 µM in assay [2] and 227 nM in assay [3].

For the compound `CCOC(=O)N1CCN(Cc2cc(C)cc(Nc3nnc([C@@H](C)O)o3)c2C)C[C@@H]1C` [Example 71, ethyl (2S)-4-[[3-[[5-[(1R)-1-hydroxyethyl]-1,3,4-oxadiazol-2-yl]amino]-2,5-dimethyl-phenyl]methyl]-2-methyl-piperazine-1-carboxylate], the EC50 came out at 0.223 µM in assay [1], 0.062 µM in assay [2] and 307 nM in assay [3].

In the case of `Cc1cc(CN2CCN(C(=O)OC(C)C)[C@@H](C)C2)c(C)c(Nc2nnc([C@@H](O)CO)o2)c1` [Example 72, isopropyl (2S)-4-[[3-[[5-[(1S)-1,2-dihydroxyethyl]-1,3,4-oxadiazol-2-yl]amino]-2,5-dimethyl-phenyl]methyl]-2-methyl-piperazine-1-carboxylate], the EC50 was found to be 0.262 µM in assay [1], 0.0816 µM in assay [2] and 258 nM in assay [3].

Turning to `Cc1c(CN2CCN(C(=O)OC(C)(C)C)[C@@H](C)C2)cc(Cl)cc1Nc1ncc(CO)o1` [Example 74, tert-butyl (2S)-4-[[5-chloro-3-[[5-(hydroxymethyl)oxazol-2-yl]amino]-2-methyl-phenyl]methyl]-2-methyl-piperazine-1-carboxylate], the EC50 in assay [1] amounted to 0.408 µM; in assay [2], 0.0718 µM; in assay [3] it was 946 nM.

With `Cc1cc(CN2CCN(C(=O)O[C@H](C)C(F)(F)F)[C@@H](C)C2)c(C)c(Nc2nnc([C@@H](O)CO)o2)c1` [Example 75, [(1R)-2,2,2-trifluoro-1-methyl-ethyl] (2S)-4-[[3-[[5-[(1S)-1,2-dihydroxyethyl]-1,3,4-oxadiazol-2-yl]amino]-2,5-dimethyl-phenyl]methyl]-2-methyl-piperazine-1-carboxylate], the EC50 was 0.0529 µM in assay [1], 0.0324 µM in assay [2] and 158 nM in assay [3].

`Cc1cc(CN2CCN(C(=O)OC(C)C)[C@@H](C)C2)c(C)c(Nc2nnc([C@@H]3CCOC3)o2)c1` [Example 76, isopropyl (2S)-4-[[2,5-dimethyl-3-[[5-[(3R)-tetrahydrofuran-3-yl]-1,3,4-oxadiazol-2-yl]amino]phenyl]methyl]-2-methyl-piperazine-1-carboxylate]: the EC50 in assay [1] is 0.0605 µM; in assay [2] it was 0.0256 µM; in assay [3], 112 nM.

For the compound `Cc1cc(CN2CCN(C(=O)OC(C)C)[C@@H](C)C2)c(C)c(Nc2nnc([C@H]3NCC[C@H]3O)o2)c1` [Example 77, isopropyl (2S)-4-[[3-[[5-[(2S,3R)-3-hydroxypyrrolidin-2-yl]-1,3,4-oxadiazol-2-yl]amino]-2,5-dimethyl-phenyl]methyl]-2-methyl-piperazine-1-carboxylate], the EC50 was found to be 0.18 µM in assay [1], 0.0612 µM in assay [2] and 368 nM in assay [3].

The values are drawn from patent publication US10934282B2, “Heteroaromatic modulators of the retinoid-related orphan receptor gamma” (LEO PHARMA A/S, priority 2016, dated 2021).
